Source: ChEMBL document CHEMBL3885881, “DrugMatrix”

Species: Rattus norvegicus
Assay: DrugMatrix - Regimen: Daily Repeat
Type: toxicity, organism-based, Sprague-Dawley
Set-up: regimen Daily Repeat, gender Male, age 6-8 weeks
Conditions: in vivo, po, route oral GAVAGE; for ABSOLUTE BASOPHIL / ABSOLUTE EOSINOPHIL / ABSOLUTE LYMPHOCYTE / ABSOLUTE MONOCYTE / ABSOLUTE SEGMENTED NEUTROPHIL / BASOPHIL / EOSINOPHIL / ERYTHROCYTE COUNT / HEMATOCRIT / HEMOGLOBIN / LEUKOCYTE COUNT / LYMPHOCYTE / MEAN CORPUSCULAR HEMOGLOBIN / MEAN CORPUSCULAR HEMOGLOBIN CONCENTRATION / MEAN CORPUSCULAR VOLUME / MONOCYTE / NEUTROPHIL / NUCLEATED RED BLOOD CELLS / PLATELET COUNT: tissue Blood; for ALANINE AMINOTRANSFERASE / ALBUMIN / ALKALINE PHOSPHATASE / ASPARTATE AMINOTRANSFERASE / BLOOD UREA NITROGEN / CARBON DIOXIDE / CHLORIDE / CHOLESTEROL / CREATINE PHOSPHOKINASE / CREATININE / GLUCOSE / LACTATE DEHYDROGENASE / LIPASE / PHOSPHORUS / POTASSIUM / SODIUM / TOTAL BILIRUBIN / TOTAL PROTEIN / URIC ACID: tissue Plasma
[1] = 1200 mg/kg, 72 h, dose level High, time 3 day, vehicle 100 % WATER
[2] = 1200 mg/kg, 120 h, dose level High, time 5 day, vehicle 100 % WATER
[3] = 0 mg/kg, 72 h, dose level Control, time 3 day, vehicle .5 % CMC
[4] = 0 mg/kg, 120 h, dose level Control, time 5 day, vehicle .5 % CMC

## CCC1(C)CC(=O)NC1=O (centres undefined) [ETHOSUXIMIDE]
[1]
  ABSOLUTE BASOPHIL: 0 CELLS/uL
  ABSOLUTE EOSINOPHIL: 0 CELLS/uL
  ABSOLUTE LYMPHOCYTE: 11632.67 CELLS/uL
  ABSOLUTE MONOCYTE: 44.67 CELLS/uL
  ABSOLUTE SEGMENTED NEUTROPHIL: 722.67 CELLS/uL
  BASOPHIL: 0%
  EOSINOPHIL: 0%
  ERYTHROCYTE COUNT: 5.96 x10E6/uL
  HEMATOCRIT: 38.63%
  HEMOGLOBIN: 15.43 G/DL
  LEUKOCYTE COUNT: 12.4 x10E3/uL
  LYMPHOCYTE: 94%
  MEAN CORPUSCULAR HEMOGLOBIN: 26 pg
  MEAN CORPUSCULAR HEMOGLOBIN CONCENTRATION: 40 G/DL
  MEAN CORPUSCULAR VOLUME: 65 fL
  MONOCYTE: 0.33%
  NEUTROPHIL: 5.67%
  NUCLEATED RED BLOOD CELLS: 0 /100WBC
  PLATELET COUNT: 1151 x10E3/uL
  ALANINE AMINOTRANSFERASE: 70.67 u/L
  ALBUMIN: 4.4 G/DL
  ALKALINE PHOSPHATASE: 269.67 u/L
  ASPARTATE AMINOTRANSFERASE: 95 u/L
  BLOOD UREA NITROGEN: 16.33 mg/dL
  CARBON DIOXIDE: 28.67 mmol/L
  CHLORIDE: 97 MEQ/L
  CHOLESTEROL: 100.67 mg/dL
  CREATINE PHOSPHOKINASE: 183.67 u/L
  CREATININE: 0.14 mg/dL
  GLUCOSE: 133 mg/dL
  LACTATE DEHYDROGENASE: 123 u/L
  LIPASE: 10.67 u/L
  PHOSPHORUS: 12.53 mg/dL
  POTASSIUM: 7.49 MEQ/L
  SODIUM: 140.33 MEQ/L
  TOTAL BILIRUBIN: 0.2 mg/dL
  TOTAL PROTEIN: 5.97 G/DL
  URIC ACID: 1.9 mg/dL
[2]
  ABSOLUTE BASOPHIL: 0 CELLS/uL
  ABSOLUTE EOSINOPHIL: 57.67 CELLS/uL
  ABSOLUTE LYMPHOCYTE: 11720.67 CELLS/uL
  ABSOLUTE MONOCYTE: 238.33 CELLS/uL
  ABSOLUTE SEGMENTED NEUTROPHIL: 2116.67 CELLS/uL
  BASOPHIL: 0%
  EOSINOPHIL: 0.33%
  ERYTHROCYTE COUNT: 6.03 x10E6/uL
  HEMATOCRIT: 37.47%
  HEMOGLOBIN: 14.97 G/DL
  LEUKOCYTE COUNT: 14.13 x10E3/uL
  LYMPHOCYTE: 83%
  MEAN CORPUSCULAR HEMOGLOBIN: 24.8 pg
  MEAN CORPUSCULAR HEMOGLOBIN CONCENTRATION: 39.97 G/DL
  MEAN CORPUSCULAR VOLUME: 62.07 fL
  MONOCYTE: 1.67%
  NEUTROPHIL: 15%
  NUCLEATED RED BLOOD CELLS: 0 /100WBC
  PLATELET COUNT: 1343 x10E3/uL
  ALANINE AMINOTRANSFERASE: 98.67 u/L
  ALBUMIN: 4.7 G/DL
  ALKALINE PHOSPHATASE: 209.33 u/L
  ASPARTATE AMINOTRANSFERASE: 133.67 u/L
  BLOOD UREA NITROGEN: 15 mg/dL
  CARBON DIOXIDE: 25.67 mmol/L
  CHLORIDE: 96.67 MEQ/L
  CHOLESTEROL: 108 mg/dL
  CREATINE PHOSPHOKINASE: 425.33 u/L
  CREATININE: 0.16 mg/dL
  GLUCOSE: 121 mg/dL
  LACTATE DEHYDROGENASE: 480.67 u/L
  LIPASE: 10.67 u/L
  PHOSPHORUS: 11.4 mg/dL
  POTASSIUM: 6.59 MEQ/L
  SODIUM: 141.93 MEQ/L
  TOTAL BILIRUBIN: 0.13 mg/dL
  TOTAL PROTEIN: 6.37 G/DL
  URIC ACID: 1.63 mg/dL

## Clc1ccccc1CN1CCc2sccc2C1 [TICLOPIDINE]
[3]
  BASOPHIL: 0%
  EOSINOPHIL: 0%
  ERYTHROCYTE COUNT: 6.19 x10E6/uL
  HEMATOCRIT: 36.94%
  HEMOGLOBIN: 14.58 G/DL
  LEUKOCYTE COUNT: 11.54 x10E3/uL
  LYMPHOCYTE: 84.8%
  MEAN CORPUSCULAR HEMOGLOBIN: 23.58 pg
  MEAN CORPUSCULAR HEMOGLOBIN CONCENTRATION: 39.44 G/DL
  MEAN CORPUSCULAR VOLUME: 59.76 fL
  MONOCYTE: 1.4%
  NEUTROPHIL: 13.8%
  PLATELET COUNT: 1068.8 x10E3/uL
  ALANINE AMINOTRANSFERASE: 38.17 u/L
  ALBUMIN: 3.88 G/DL
  ALKALINE PHOSPHATASE: 391.33 u/L
  ASPARTATE AMINOTRANSFERASE: 69.83 u/L
  BLOOD UREA NITROGEN: 15 mg/dL
  CHLORIDE: 104.17 MEQ/L
  CHOLESTEROL: 72.17 mg/dL
  CREATINE PHOSPHOKINASE: 174.33 u/L
  CREATININE: 0.58 mg/dL
  GLUCOSE: 192.67 mg/dL
  PHOSPHORUS: 10.52 mg/dL
  POTASSIUM: 6.8 MEQ/L
  SODIUM: 149.67 MEQ/L
  TOTAL BILIRUBIN: 0.78 mg/dL
  TOTAL PROTEIN: 6.28 G/DL
[4]
  BASOPHIL: 0%
  EOSINOPHIL: 0.17%
  ERYTHROCYTE COUNT: 6.72 x10E6/uL
  HEMATOCRIT: 40.02%
  HEMOGLOBIN: 15.83 G/DL
  LEUKOCYTE COUNT: 9.5 x10E3/uL
  LYMPHOCYTE: 87.17%
  MEAN CORPUSCULAR HEMOGLOBIN: 23.57 pg
  MEAN CORPUSCULAR HEMOGLOBIN CONCENTRATION: 39.62 G/DL
  MEAN CORPUSCULAR VOLUME: 59.55 fL
  MONOCYTE: 1.67%
  NEUTROPHIL: 11%
  PLATELET COUNT: 1053.67 x10E3/uL
  ALANINE AMINOTRANSFERASE: 26.33 u/L
  ALBUMIN: 4.02 G/DL
  ALKALINE PHOSPHATASE: 316.67 u/L
  ASPARTATE AMINOTRANSFERASE: 61.33 u/L
  BLOOD UREA NITROGEN: 18.67 mg/dL
  CHLORIDE: 108 MEQ/L
  CHOLESTEROL: 65.17 mg/dL
  CREATINE PHOSPHOKINASE: 161.17 u/L
  CREATININE: 0.75 mg/dL
  GLUCOSE: 177.33 mg/dL
  PHOSPHORUS: 9.72 mg/dL
  POTASSIUM: 6.18 MEQ/L
  SODIUM: 150.5 MEQ/L
  TOTAL BILIRUBIN: 0.68 mg/dL
  TOTAL PROTEIN: 6.55 G/DL

## COc1ccc(CCN(C)CCCC(C#N)(c2ccc(OC)c(OC)c2)C(C)C)cc1OC (centres undefined)
20 mg/kg, 72 h, dose level Low, time 3 day, vehicle 100 % WATER
  POTASSIUM: 6.68 MEQ/L
20 mg/kg, 120 h, dose level Low, time 5 day, vehicle 100 % WATER
  POTASSIUM: 6.29 MEQ/L
